Source: ChEMBL document CHEMBL6083255, “Synthesis and biological evaluation of novel isobenzofuran-1(3H)-one derivatives as antidepressant agents” (2024)
Calls of active or inactive are those of the source. The calls are words filed in the database; no cut-off is given here.

Columns and labels:
RBL-2H3 [1] = test: Induction of cell death in Wistar rat RBL-2H3 cells assessed as cell viability over 20 uM by MTT assay; assay type: functional, cell-based
RBL-2H3 [2] = test: Cytotoxicity against Wistar rat RBL-2H3 cells assessed as cell viability over 20 uM by MTT assay; assay type: functional, cell-based
[3] = target: Sodium-dependent serotonin transporter (Rattus norvegicus) (UniProt P31652); test: Inhibition of SERT in Wistar rat RBL-2H3 cells assessed as decrease in fluorescence intensity at 10 uM preincubated for 2 hrs followed by APP+ addition and measured after 1 hr by fluorescence based assay; assay type: cell-based; settings: time 3.0 hrs
RBL-2H3 [4] = test: Cytotoxicity against Wistar rat RBL-2H3 cells assessed as cell viability at 125 uM incubated for 24 hrs by MTT assay; assay type: functional; settings: read-out: Activity
RBL-2H3 [5] = test: Cytotoxicity against Wistar rat RBL-2H3 cells assessed as cell viability at 1 uM incubated for 24 hrs by MTT assay; assay type: functional; settings: read-out: Activity
RBL-2H3 [6] = test: Cytotoxicity against Wistar rat RBL-2H3 cells assessed as cell viability at 25 uM incubated for 24 hrs by MTT assay; assay type: functional; settings: read-out: Activity
RBL-2H3 [7] = test: Cytotoxicity against Wistar rat RBL-2H3 cells assessed as cell viability at 5 uM incubated for 24 hrs by MTT assay; assay type: functional; settings: read-out: Activity
CHO-K1 [8] = test: Antagonist activity at mu opioid receptor in CHO-K1 cells assessed as intracellular fluorescence intensity at 50 uM incubated for 2 mins by microplate reader assay; assay type: cell-based; settings: Cricetulus griseus
CHO-K1 [9] = test: Agonist activity at mu opioid receptor in CHO-K1 cells assessed as increase in intracellular fluorescence intensity at 30 uM incubated for 90 sec by microplate reader assay; assay type: cell-based; settings: Cricetulus griseus, filed as agonist
CHO-K1 [10] = test: Agonist activity at CCK-B receptor in CHO-K1 cells incubated for 90 sec by microplate reader assay; assay type: cell-based; settings: Cricetulus griseus
CHO-K1 [11] = test: Agonist activity at mu opioid receptor in CHO-K1 cells assessed as increase in intracellular fluorescence intensity at 50 uM incubated for 90 sec by microplate reader assay; assay type: cell-based; settings: Cricetulus griseus
CHO-K1 [12] = test: Antagonist activity at CCK-B receptor in CHO-K1 cells at 50 uM incubated for 90 sec by microplate reader assay; assay type: cell-based; settings: Cricetulus griseus

Chain of Sodium-dependent serotonin transporter (Rattus norvegicus) (P31652 whole entry): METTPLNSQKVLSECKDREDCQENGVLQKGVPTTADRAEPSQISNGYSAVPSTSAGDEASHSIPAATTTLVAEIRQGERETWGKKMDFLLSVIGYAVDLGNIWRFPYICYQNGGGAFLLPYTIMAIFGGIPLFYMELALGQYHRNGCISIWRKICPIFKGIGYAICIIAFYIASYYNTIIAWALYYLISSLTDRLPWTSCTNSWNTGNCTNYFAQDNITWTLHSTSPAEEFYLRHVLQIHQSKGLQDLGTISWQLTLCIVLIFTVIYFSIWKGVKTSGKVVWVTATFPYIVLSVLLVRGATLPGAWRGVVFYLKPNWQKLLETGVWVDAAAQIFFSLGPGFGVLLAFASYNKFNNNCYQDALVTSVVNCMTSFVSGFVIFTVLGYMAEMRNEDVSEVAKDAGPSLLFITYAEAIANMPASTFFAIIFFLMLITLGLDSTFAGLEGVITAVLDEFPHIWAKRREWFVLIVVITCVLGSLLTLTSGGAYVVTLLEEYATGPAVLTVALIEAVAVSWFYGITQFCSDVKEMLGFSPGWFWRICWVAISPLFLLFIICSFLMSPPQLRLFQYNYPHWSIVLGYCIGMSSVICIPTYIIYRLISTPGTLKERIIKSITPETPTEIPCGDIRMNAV

SMILES	Activity (RBL-2H3 [1])	Activity (RBL-2H3 [2])	Activity [3]	viability at 125 µM (RBL-2H3 [4])	viability at 1 µM (RBL-2H3 [5])	viability at 25 µM (RBL-2H3 [6])	viability at 5 µM (RBL-2H3 [7])	Activity (CHO-K1 [8]; filed as antagonist)	Activity (CHO-K1 [9])	Activity (CHO-K1 [8])	Activity (CHO-K1 [10])	Activity (CHO-K1 [11])	Activity (CHO-K1 [12])
CNCCC(Oc1ccc(C(F)(F)F)cc1)c1ccccc1 (stereo not drawn)	Active	Active	Active										
O=C1OC(CN2CCCCC2)(c2ccccc2)c2ccccc21 (stereo not drawn)			Active	112%	99.2%	118%	102%						
C=CCN1CC[C@]23c4c5ccc(O)c4O[C@H]2C(=O)CC[C@@]3(O)[C@H]1C5								Active					
CCN(CC)CC1(c2ccc(C)cc2)OC(=O)c2ccccc21 (stereo not drawn)			Active	160%	101%	123%	106%						
O=C1OC(CN2CCCCCC2)(c2ccc(Cl)cc2)c2ccccc21 (stereo not drawn)			Active	144%	104%	119%	109%						
Cc1ccc(C2(CN3CCCCCC3)OC(=O)c3ccccc32)cc1 (stereo not drawn)			inactive	171%	98.8%	140%	106%						
CC1CCCN(CC2(c3ccccc3)OC(=O)c3ccccc32)C1 (stereo not drawn)			Active	141%	92.7%	116%	101%						
Cc1ccc(C2(CN3CCCC(C)C3)OC(=O)c3ccccc32)cc1 (stereo not drawn)			inactive	157%	97.6%	121%	101%						
CCOC(=O)C1CCN(CC2(c3ccc(Cl)cc3)OC(=O)c3ccccc32)CC1 (stereo not drawn)			inactive	99%	99%	96.4%	97%						
CC1CCCN(CC2(c3ccc(Cl)cc3)OC(=O)c3ccccc32)C1 (stereo not drawn)			Active	104%	99.2%	102%	98%						
C[C@@H](NC(=O)[C@@H](N)Cc1ccc(O)cc1)C(=O)NCC(=O)N(C)[C@@H](Cc1ccccc1)C(=O)NCCO									Active				
CCOC(=O)C1CCN(CC2(c3ccccc3)OC(=O)c3ccccc32)CC1 (stereo not drawn)			inactive	178%	99.7%	130%	105%						
CCN(CC)CC1(c2ccccc2)OC(=O)c2ccccc21 (stereo not drawn)			Active	127%	106%	125%	113%						
CC(=O)N1CCN(CC2(c3ccc(Cl)cc3)OC(=O)c3ccccc32)CC1 (stereo not drawn)			Active	141%	99.8%	125%	106%						
O=C1OC(CN2CCCC2)(c2ccccc2)c2ccccc21 (stereo not drawn)			Active	181%	119%	133%	139%						
Cc1ccc(C2(CN3CCCCC3)OC(=O)c3ccccc32)cc1 (stereo not drawn)			Active	108%	101%	99%	98.4%						
CCOC(=O)C1CCN(CC2(c3ccc(C)cc3)OC(=O)c3ccccc32)CC1 (stereo not drawn)			inactive	157%	102%	125%	108%						
O=C1OC(CN2CCCCC2)(c2ccc(Cl)cc2)c2ccccc21 (stereo not drawn)			Active; Activity Stronger Than Fluoxetine	125%	97.5%	107%	98.1%			inactive	inactive	inactive	inactive
CC(=O)N1CCN(CC2(c3ccc(C)cc3)OC(=O)c3ccccc32)CC1 (stereo not drawn)			Active	120%	93.3%	119%	97.2%						
O=C1OC(CN2CCCCCC2)(c2ccccc2)c2ccccc21 (stereo not drawn)			Active; Activity Stronger Than Fluoxetine	100%	97.8%	95.5%	101%			inactive	inactive	inactive	inactive
CC(=O)N1CCN(CC2(c3ccccc3)OC(=O)c3ccccc32)CC1 (stereo not drawn)			inactive	165%	102%	129%	109%						
Cc1ccc(C2(CN3CCCC3)OC(=O)c3ccccc32)cc1 (stereo not drawn)			Active	122%	94.8%	100%	95.5%						
